# Test results reported in patent US20110230472A1, “RING-FUSED AZOLE DERIVATIVE HAVING PI3K-INHIBITING ACTIVITY” (Shionogi & Co., Ltd., priority 2008, published 2011).
# Molecular target: PI-3 kinase γ (Homo sapiens, UniProt P48736)
# Assay: PI3Kγ inhibitory activity, PI3-kinase HTRF assay (inhibition ratio)
# Assay type: biochemical
# Conditions: 0.5 h
# Description: The PI3Kγ inhibitory activity of a compound was evaluated using PI3-kinase HTRF™ assay (Millipore) according to the following procedure:
# To each well of a testing plate, 5 μL of a compound solution containing 10% DMSO (200 μmol/L or 40 μmol/L as the concentration of the compound), 5 μL of a substrate solution (40 μmol/L phosphatidylinositol (4,5)-bisphosphate, 20 mmol/L MgCl2, 10 mmol/L DTT), and 5 μL of a enzyme solution (80 μg/mL PI-3 kinase γ, 10 mmol/L MgCl2, 5 mmol/L DTT) were added, and then allowed to stand for 10 minutes.
# Then, 5 μL of a reaction solution (40 μmol/L ATP, 10 mmol/L MgCl2, 5 mmol/L DTT) was added thereto. After reacting for 30 minutes at room temperature, 5 μL of a solution containing EDTA and biotinylated phosphatidylinositol (3,4,5)-triphosphate were added to quench the reaction.
# 5 μL of a detection reagent containing a europium-labeled anti-GST antibody, the GST-tagged PH domain, and allophycocyanin-labeled streptavidin was added thereto. After 18 hours, HTRF (excitation wavelength: 330 nm, measured wavelengths: 620 nm and 665 nm) was measured.
# HTRF ratio was defined as the value obtained by dividing the amount of fluorescence obtained at the measured wavelength 665 nm by the amount of fluorescence obtained at 620 nm. The HTRF ratio in the absence of a compound was defined as 100% activity and the HTRF ratio in the absence of PI-3 kinase γ was defined as 0% activity to calculate an inhibition ratio which was defined as the PI3Kγ inhibitory activity of a compound at 50 μmol/L or 10 μmol/L.
# Chain of PI-3 kinase γ (P48736 whole entry): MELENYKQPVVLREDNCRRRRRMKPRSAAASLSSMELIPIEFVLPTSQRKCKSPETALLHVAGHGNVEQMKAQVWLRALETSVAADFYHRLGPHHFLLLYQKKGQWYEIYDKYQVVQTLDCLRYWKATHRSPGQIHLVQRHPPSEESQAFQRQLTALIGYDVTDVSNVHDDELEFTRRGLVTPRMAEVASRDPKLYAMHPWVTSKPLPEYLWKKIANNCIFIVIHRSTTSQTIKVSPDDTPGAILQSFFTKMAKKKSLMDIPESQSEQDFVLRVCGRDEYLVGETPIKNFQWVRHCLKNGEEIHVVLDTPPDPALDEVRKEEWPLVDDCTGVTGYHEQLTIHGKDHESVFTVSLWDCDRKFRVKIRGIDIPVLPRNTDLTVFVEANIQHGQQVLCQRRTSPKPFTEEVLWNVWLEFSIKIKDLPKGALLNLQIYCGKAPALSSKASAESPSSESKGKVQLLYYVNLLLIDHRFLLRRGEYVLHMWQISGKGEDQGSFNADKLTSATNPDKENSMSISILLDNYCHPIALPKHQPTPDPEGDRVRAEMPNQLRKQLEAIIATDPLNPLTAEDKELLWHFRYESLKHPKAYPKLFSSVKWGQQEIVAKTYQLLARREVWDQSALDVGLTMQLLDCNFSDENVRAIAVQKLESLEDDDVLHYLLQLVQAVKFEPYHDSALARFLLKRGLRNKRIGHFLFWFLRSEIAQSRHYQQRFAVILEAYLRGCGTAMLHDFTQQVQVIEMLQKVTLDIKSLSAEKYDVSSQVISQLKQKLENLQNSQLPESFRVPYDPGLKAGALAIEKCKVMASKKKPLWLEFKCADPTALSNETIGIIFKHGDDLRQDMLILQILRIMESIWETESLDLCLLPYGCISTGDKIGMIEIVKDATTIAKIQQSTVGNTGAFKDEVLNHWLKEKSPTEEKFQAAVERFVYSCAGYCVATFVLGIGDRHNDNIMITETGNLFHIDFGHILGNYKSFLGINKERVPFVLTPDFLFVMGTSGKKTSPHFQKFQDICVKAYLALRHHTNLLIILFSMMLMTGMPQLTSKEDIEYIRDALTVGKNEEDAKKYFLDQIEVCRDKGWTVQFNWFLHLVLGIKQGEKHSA
inhibition at 10 µM (compound at 10 μmol/L) [%],Compound,further results
–,COc1cc(N2CCc3nc(NC(=O)NCCC(=O)N(C)C(C)(C)C)sc3C2)nc(OC)n1 [Compound I-270],"inhibition at 10 µM (PI3Kγ, compound at 10 μM): ≥ 95%"
–,COc1cc(N2CCc3nc(NC(=O)NCCC(=O)N4[C@H](C)CCC[C@@H]4C)sc3C2)nc(OC)n1 [Compound I-271],"inhibition at 10 µM (PI3Kγ, compound at 10 μM): ≥ 95%"
–,COc1cc(N2CCc3nc(NC(=O)NCCC(=O)N(C(C)C)C(C)C)sc3C2)nc(OC)n1 [Compound I-272],"inhibition at 10 µM (PI3Kγ, compound at 10 μM): ≥ 95%"
–,COc1cc(N2CCc3nc(NC(=O)NCCC(=O)Nc4ccccc4)sc3C2)nc(OC)n1 [Compound I-273],"inhibition at 10 µM (PI3Kγ, compound at 10 μM): ≥ 95%"
–,COc1cc(N2CCc3nc(NC(=O)NCCC(=O)N(C)c4ccccc4)sc3C2)nc(OC)n1 [Compound I-274],"inhibition at 10 µM (PI3Kγ, compound at 10 μM): ≥ 95%"
–,COc1cc(N2CCc3nc(NC(=O)NCCC(=O)N4CCC[C@H]4C(=O)OC(C)(C)C)sc3C2)nc(OC)n1 [Compound I-275],"inhibition at 10 µM (PI3Kγ, compound at 10 μM): ≥ 95%"
–,COc1cc(N2CCc3nc(NC(=O)N[C@@H](CC(=O)OC(C)(C)C)C(=O)O)sc3C2)nc(OC)n1 [Compound I-280],"inhibition at 10 µM (PI3Kγ, compound at 10 μM): ≥ 95%"
–,COc1cc(N2CCc3nc(NC(=O)CCNC(=O)OC(C)(C)C)sc3C2)nc(OC)n1 [Compound I-281],"inhibition at 10 µM (PI3Kγ, compound at 10 μM): ≥ 95%"
–,COc1cc(C(=O)Nc2nc3c(s2)CN(c2cc(OC)nc(OC)n2)CC3)on1 [Compound I-282],"inhibition at 10 µM (PI3Kγ, compound at 10 μM): 86%"
–,CC(=O)Nc1cc2n(n1)CCN2c1ccc2c(c1)CCC2=O [Compound I-283],"inhibition at 10 µM (PI3Kγ, compound at 10 μM): ≥ 95%"
–,COc1cc(N2CCc3nc(NC(=O)NCC(=O)NCC(C)(C)C)sc3C2)nc(OC)n1 [Compound I-285],"inhibition at 10 µM (PI3Kγ, compound at 10 μM): ≥ 95%"
–,COc1cccc(N2CCn3nc(N)cc32)c1 [Compound I-286],"inhibition at 50 µM (PI3Kγ, compound at 50 μM): 77%"
–,COc1cc(N2CCc3nc(NC(=O)NCCCOC(C)(C)C)sc3C2)nc(OC)n1 [Compound I-288],"inhibition at 10 µM (PI3Kγ, compound at 10 μM): ≥ 95%"
90,COc1cc(N2CCc3nc(NC(=O)Nc4ccc(C(C)(C)C)cc4)sc3C2)nc(OC)n1 [Compound I-289],–
–,COc1cc(N2CCc3nc(NC(=O)NC4CCC(C(C)(C)C)CC4)sc3C2)nc(OC)n1 (stereo not shown) [Compound I-290],inhibition at 50 µM (compound at 50 μmol/L): 88%
≥ 95,O=C(Nc1cc2n(n1)CCN2c1ccc2cnccc2c1)OCc1ccccc1 [Compound I-291],–
86,COc1cccc(N2CCn3nc(NC(=O)CCNC(=O)OC(C)(C)C)cc32)c1 [Compound I-293],–
84,COc1cc(N2CCc3nc(NC(=O)NC4CCCCC4)sc3C2)nc(OC)n1 [Compound I-294],–
93,COc1cccc(NC(=O)Nc2nc3c(s2)CN(c2cc(OC)nc(OC)n2)CC3)c1 [Compound I-295],–
88,COc1cc(N2CCc3nc(NC(=O)Nc4cccs4)sc3C2)nc(OC)n1 [Compound I-296],–
91,COc1cc(N2CCc3nc(NC(=O)Nc4ccsc4)sc3C2)nc(OC)n1 [Compound I-297],–
–,CC(=O)Nc1cc2n(n1)CCN2c1ccc2c(c1)CCN(C(=O)OC(C)(C)C)C2 [Compound I-301],inhibition at 50 µM (compound at 50 μmol/L): ≥ 95%
85,COc1cc(N2CCc3nc(NC(=O)Nc4ccccn4)sc3C2)nc(OC)n1 [Compound I-302],–

inhibition at 10 µM (compound at 10 μmol/L) [%],Compound,further results
89,COc1cc(N2CCc3nc(NC(=O)N4CCC(=O)N5CCOCC5C4=O)sc3C2)nc(OC)n1 (stereo not shown) [Compound I-304],–
–,CC(=O)Nc1cc2n(n1)CCN2c1ccc2c(c1)CCNC2 [Compound I-305],inhibition at 50 µM (compound at 50 μmol/L): 84%
≥ 95,CC(=O)Nc1cc2n(n1)CCN2c1ccc2c(c1)CCCN2C(=O)OC(C)(C)C [Compound I-306],–
86,CCOC(=O)CCCCC(=O)Nc1cc2n(n1)CCN2c1cccc(OC)c1 [Compound I-307],–
≥ 95,COc1cc(N2CCc3nc(NC(=O)NCCC(=O)N4CCC[C@H]4C(=O)NC(C)(C)C)sc3C2)nc(OC)n1 [Compound I-311],–
≥ 95,COc1cc(N2CCc3nc(NC(=O)NCCC(=O)N4CCC[C@H]4C(=O)N4CCCC4)sc3C2)nc(OC)n1 [Compound I-312],–
89,COc1cc(N2CCc3nc(NC(=O)NCCC(=O)N4CCC[C@H]4C(=O)N(C)C(C)C)sc3C2)nc(OC)n1 [Compound I-313],–
88,CN1CCc2cc(N3CCn4nc(NC(=O)OCc5ccccc5)cc43)ccc2C1=O [Compound I-314],–
≥ 95,COc1cccc(N2CCn3nc(NC(=O)CCCCC(=O)O)cc32)c1 [Compound I-315],–
75,Nc1cc2n(n1)CCN2c1ccc2cnccc2c1 [Compound I-316],–
≥ 95,COc1cccc(N2CCn3nc(NC(=O)c4ccc[nH]4)cc32)c1 [Compound I-320],–
95,COc1cc(N2CCc3nc(NC(=O)Nc4cccc(C(=O)OC(C)(C)C)c4)sc3C2)nc(OC)n1 [Compound I-321],–
93,CN1CCc2cc(N3CCn4nc(NC(=O)c5ccccc5)cc43)ccc2C1=O [Compound I-324],–
–,CNC(=O)Nc1nc2c(s1)CN(c1cc(OCC3CC3)nc(Cl)n1)CC2 [Compound I-325],inhibition at 50 µM (compound at 50 μmol/L): 81%
87,COc1cc(N2CCc3nc(NC(=O)NCCC(=O)N4CCOCC4(C)C)sc3C2)nc(OC)n1 [Compound I-328],–
89,COc1cc(N2CCc3nc(NC(=O)NCc4cc(Br)no4)sc3C2)nc(OC)n1 [Compound I-329],–
88,CNC(=O)Nc1nc2c(s1)CN(c1cc(Cl)nc(OC)n1)CC2 [Compound I-333],–
88,COc1nc(Cl)cc(N2CCc3nc(NC(C)=O)sc3C2)n1 [Compound I-334],–
≥ 95,CC(=O)Nc1cc2n(n1)CCN2c1ccc2c(c1)CCC(=O)N2 [Compound I-335],–
89,CNC(=O)Nc1cc2n(n1)CCN2c1ccc2c(c1)CCN(C)C2=O [Compound I-336],–
82,COc1cc(N2CCc3nc(NC(=O)Cc4ccccc4C(=O)NC(C)(C)C)sc3C2)nc(OC)n1 [Compound I-337],–
92,CN1CCc2cc(N3CCn4nc(NC(=O)Cc5ccc(F)cc5)cc43)ccc2C1=O [Compound I-342],–
80,CN1CCc2cc(N3CCn4nc(NC(=O)c5ccc(S(C)(=O)=O)s5)cc43)ccc2C1=O [Compound I-344],–

inhibition at 10 µM (compound at 10 μmol/L) [%],Compound,further results
80,CN1CCc2cc(N3CCn4nc(NC(=O)c5cc6ccccc6[nH]5)cc43)ccc2C1=O [Compound I-345],–
≥ 95,CN1CCc2cc(N3CCn4nc(NC(=O)c5ccc6[nH]cnc6c5)cc43)ccc2C1=O [Compound I-349],–
–,CN1CCc2cc(N3CCn4nc(NC(=O)C5CCN(C(=O)OC(C)(C)C)C5)cc43)ccc2C1=O (stereo not shown) [Compound I-350],inhibition at 50 µM (compound at 50 μmol/L): ≥ 95%
–,CN1CCc2cc(N3CCn4nc(NC(=O)CC5CCN(C(=O)OC(C)(C)C)C5)cc43)ccc2C1=O (stereo not shown) [Compound I-351],inhibition at 50 µM (compound at 50 μmol/L): ≥ 95%
–,CN1CCc2cc(N3CCn4nc(NC(=O)C(O)c5ccccc5)cc43)ccc2C1=O (stereo not shown) [Compound I-352],inhibition at 50 µM (compound at 50 μmol/L): 81%
–,CN1CCc2cc(N3CCn4nc(NC(=O)C5CCNC5)cc43)ccc2C1=O (stereo not shown) [Compound I-355],inhibition at 50 µM (compound at 50 μmol/L): 92%
≥ 95,CN1CCc2cc(N3CCn4nc(NC(=O)c5ccncc5)cc43)ccc2C1=O [Compound I-360],–
80,Cc1csc(C(=O)Nc2cc3n(n2)CCN3c2ccc3c(c2)CCN(C)C3=O)c1 [Compound I-361],–
≥ 95,CNC(=O)Nc1nc2c(s1)CN(c1cc(N(C)C)nc(OC)n1)CC2 [Compound I-362],–
≥ 95,COC(=O)Nc1cc[nH]c1C(=O)Nc1cc2n(n1)CCN2c1cccc(OC)c1 [Compound I-364],–
–,CN1CCc2cc(N3CCn4nc(NC(=O)c5ccc(Br)s5)cc43)ccc2C1=O [Compound I-365],inhibition at 50 µM (compound at 50 μmol/L): 81%
86,CN1CCc2cc(N3CCn4nc(NC(=O)Nc5cccs5)cc43)ccc2C1=O [Compound I-367],–
95,CN1CCc2cc(N3CCn4nc(NC(=O)Nc5ccsc5)cc43)ccc2C1=O [Compound I-368],–
–,CN1CCc2cc(N3CCn4nc(NC(=O)NC5CCCC5)cc43)ccc2C1=O [Compound I-369],inhibition at 50 µM (compound at 50 μmol/L): ≥ 95%
84,CN1CCc2cc(N3CCn4nc(NC(=O)NCc5ccccc5)cc43)ccc2C1=O [Compound I-370],–
≥ 95,CN1CCc2cc(N3CCn4nc(NC(=O)c5ccc(N6CCCC6)s5)cc43)ccc2C1=O [Compound I-371],–
–,CN1CCc2cc(N3CCn4nc(NC(=O)C5CCCO5)cc43)ccc2C1=O (stereo not shown) [Compound I-372],inhibition at 50 µM (compound at 50 μmol/L): 84%
–,CN1CCc2cc(N3CCn4nc(NC(=O)c5csc6ccccc56)cc43)ccc2C1=O [Compound I-373],inhibition at 50 µM (compound at 50 μmol/L): 82%
≥ 95,CN1CCc2cc(N3CCn4nc(NC(=O)c5cnc(NC(=O)OC(C)(C)C)o5)cc43)ccc2C1=O [Compound I-376],–
≥ 95,CN1CCc2cc(N3CCn4nc(NC(=O)c5cnc(Br)s5)cc43)ccc2C1=O [Compound I-377],–
≥ 95,CN1CCc2cc(N3CCn4nc(NC(=O)c5cnc(N)o5)cc43)ccc2C1=O [Compound I-381],–
